# Laboratory results: patent publication US20230352114A1, “METHODS OF PROVIDING MODULATORS OF TAU AGGREGATION” (GTInvent Limited, priority 2020, published 2023)
# “Also recorded” adds a separate entry of the source.
# How the values were obtained:
# dGAE [1] = molecular target: T1, dGAE (Homo sapiens, UniProt P10636); test: sandwich ELISA epitope occlusion assay of dGAE aggregates with core region scAbs; assay type: biochemical; details: dGAE with DTT, 1:5 ratio, 24 h at 37° C.; total and supernatant samples
# T1 construct: Recombinant tau297-391 (dGAE) was produced and purified from; made in house; host or cells: E. coli
# Description: The truncated core repeat domain dGAE (297-391), is the predominant fragment that constitutes bulk of the PHF core in AD (Wischik et al, 1988). During dGAE aggregation in vitro, scAb binding regions on dGAE are ‘hidden’ or ‘occluded’ which leads to a loss of immunoreactivity in aggregation samples. Here we have shown the occlusion of binding regions in aggregated dGAE samples and the recovery of immunoreactivity in the presence of LMTM, a tau-aggregation inhibitor. For preparing the aggregates, 10 μl 10 mM DTT was added to 1000 μl 100 μM dGAE and agitated with/without LMTM (1:5 ratio) at 700 rpm for 24 h at 37° C. Following overnight agitation, one third of each sample was kept aside as ‘total’ and the rest was spun down at 16000×g for 30 min and separated into ‘supernatant’ and ‘pellet’. The pellet was then resuspended in half the original volume for further experiments. The immunoreactivities of core region specific scAbs towards dGAE aggregates formed with/without LMTM was tested using a sandwich ELISA format using a ‘E’ specific monoclonal antibody 423 mAb. […] ELISA plates were coated with 10 μg/ml 423 mAb and blocked as normal. Doubling dilutions of dGAE aggregate ‘total’, ‘supernatant’ and ‘pellet’ samples at 10 μg/ml starting concentration were added to designated wells in doubling dilutions in 1×PBS. dGAE monomer (non-aggregated) was included as assay control. […]
# Tau aggregation = test: cell-based tau aggregation assay (Rickard et al., 2017); details: tau aggregation inhibition
# Description: Selected or designed compounds may further be synthesised or obtained and tested for their ability to modulate Tau aggregation, for example in a cell-based aggregation assay as described in Rickard et al., 2017.
# These compounds were assessed in a cell-based Tau aggregation assay. […] The substituents were designed to test the required strength of hydrogen bonds with the pocket, as well as optimal orientation for hydrophobic and pi interactions.
# dGAE [2] = molecular target: T1, dGAE; test: protease digestion (Proteinase K / Pronase E) of assembled dGAE, SDS-PAGE; assay type: biochemical; details: 100 μM dGAE, 10 mM DTT, ratios up to 1:5, 72 hours
# Description: Protease digestion: 100 μM dGAE with 10 mM DTT in phosphate buffer (20 mM, pH 7.4), with or without MTC at ratios up to 1:5 was agitated at 700 rpm, 37° C. for 72 hours. 10 μg aliquots were digested with increasing concentrations of Proteinase K (PK), Pronase E (PE), or left untreated. The digestion was carried out at 37° C. for 1 hour then the reaction was stopped with 1 mM Pefabloc and samples were placed on ice for 5 minutes. Sample buffer without any reducing agent was added, incubated for 5 minutes at room temperature then loaded onto a gel.
# Soluble or fibrils of dGAE (100 μM) in reducing conditions (10 mM DTT) were incubated with increasing concentrations of proteinase K or Pronase E then samples were run on SDS-PAGE.
# [3] = clinical evidence; fold lower; cited from earlier work
# T1 sequence (P10636 614-708): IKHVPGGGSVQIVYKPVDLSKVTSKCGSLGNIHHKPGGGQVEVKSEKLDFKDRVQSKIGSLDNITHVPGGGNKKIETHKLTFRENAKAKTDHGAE
smiles,measurement,setting,value
"CN(C)c1ccc2c(c1)Sc1cc(N(C)C)ccc1N2 [LMT, leuco-methylthioninium]",immunoreactivity of core region scAbs to dGAE aggregated in presence of the compound,dGAE [1],loss of immunoreactivity could be prevented
same,EC50,Tau aggregation,96 nM
same,formation of protease resistant core of dGAE,dGAE [2],loss of protease resistance; also recorded: prevents the formation of a protease resistant core
"CN(C)c1ccc2c(c1)Sc1cc(N(C)C)ccc1N2.CS(=O)(=O)O.CS(=O)(=O)O [LMTM, hydromethylthioninium mesylate]",effective dose relative to minimum effective dose of the oxidized MT+ form,[3],20 fold
same,immunoreactivity of core region scAbs to dGAE aggregated in presence of the compound,dGAE [1],increase in immunoreactivity; also recorded: increased binding
